Converted amounts (≈) assume the structure as drawn.
Columns and labels:
Assay in all cases: in vitro antibacterial evaluation, MIC by broth dilution
Format in all cases: cell-based
Escherichia coli = conditions: 18 hours at 35° C.
Enterococcus sp. = conditions: broth dilution, 18 hours at 35° C.
In short: (§1)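 Inoculum 5×10^5 CFU/mL; concentrations 64 to 0.06 μg/mL; MIC defined as lowest inhibitory level. Conducted by broth dilution under NCCLS guidelines.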

Staphylococcus sp. = conditions: broth dilution, 18 hours at 35° C.
In short: as §1

Streptococcus sp. = conditions: broth dilution, 18 hours at 35° C.
In short: as §1

CC(c1ccccc1)C1NC(=O)CNC(=O)C(CO)NC(=O)C(CC2CNC(=N)N2C2OC(CO)C(O)C(O)C2O)NC(=O)C(CC2CNC(=N)N2)NC(=O)C(Cc2ccc(OC3OC(CO)C(OC4OC(COCc5ccc(OCc6ccccc6)cc5)C(O)C(O)C4O)C(O)C3O)cc2)NC1=O (stereo not shown) [Example 246]
MIC Escherichia coli (ATCC 25922) (Escherichia coli): 128 mg/L (≈ 87.7 µM) | MIC Escherichia coli (GC 4559) (Escherichia coli): 64 mg/L (≈ 43.8 µM) | MIC Escherichia coli (GC 4560) (Escherichia coli): 4 mg/L (≈ 2.74 µM) | MIC Enterococcus avium (GC 4558) (Enterococcus sp.): 8 mg/L (≈ 5.48 µM) | MIC Enterococcus faecalis (ATCC 29212) (Enterococcus sp.): 16 mg/L (≈ 11 µM) | MIC Enterococcus faecalis (GC 2242) (Enterococcus sp.): 16 mg/L (≈ 11 µM) | MIC Enterococcus faecalis (GC 2691) (Enterococcus sp.): 32 mg/L (≈ 21.9 µM) | MIC Enterococcus faecalis (GC 3059) (Enterococcus sp.): 32 mg/L (≈ 21.9 µM) | MIC Enterococcus faecalis (GC 4552) (Enterococcus sp.): 16 mg/L (≈ 11 µM) | MIC Enterococcus faecalis (GC 4553) (Enterococcus sp.): 8 mg/L (≈ 5.48 µM) | MIC Enterococcus faecalis (GC 4554) (Enterococcus sp.): 32 mg/L (≈ 21.9 µM) | MIC Enterococcus faecalis (GC 6189) (Enterococcus sp.): 16 mg/L (≈ 11 µM) | MIC Enterococcus faecium (GC 2243) (Enterococcus sp.): 16 mg/L (≈ 11 µM) | MIC Enterococcus faecium (GC 4556) (Enterococcus sp.): 16 mg/L (≈ 11 µM) | MIC Enterococcus faecium (GC 4557) (Enterococcus sp.): 4 mg/L (≈ 2.74 µM) | MIC Enterococcus faecalis (ATCC 29212) (Enterococcus sp.; strain ATCC 29212): 16 mg/L (≈ 11 µM) | MIC Enterococcus faecium (GC 2243) (Enterococcus sp.; strain GC 2243): 16 mg/L (≈ 11 µM) | MIC Enterococcus faecalis (GC 4552) (Enterococcus sp.; strain GC 4552): 16 mg/L (≈ 11 µM) | MIC Enterococcus faecalis (GC 4553) (Enterococcus sp.; strain GC 4553): 8 mg/L (≈ 5.48 µM) | MIC Enterococcus faecalis (GC 4554) (Enterococcus sp.; strain GC 4554): 32 mg/L (≈ 21.9 µM) | MIC Enterococcus faecium (GC 4556) (Enterococcus sp.; strain GC 4556): 16 mg/L (≈ 11 µM) | MIC Enterococcus faecium (GC 4557) (Enterococcus sp.; strain GC 4557): 4 mg/L (≈ 2.74 µM) | MIC Enterococcus avium (GC 4558) (Enterococcus sp.; strain GC 4558): 8 mg/L (≈ 5.48 µM) | MIC Enterococcus faecalis (GC 6189) (Enterococcus sp.; strain GC 6189): 16 mg/L (≈ 11 µM) | MIC Enterococcus faecalis (GC 2242) (Enterococcus sp.; inoculum 5×10^5 CFU/mL, strain GC 2242): 16 mg/L (≈ 11 µM) | MIC Enterococcus faecalis (GC 2691) (Enterococcus sp.; inoculum 5×10^5 CFU/mL, strain GC 2691): 32 mg/L (≈ 21.9 µM) | MIC Enterococcus faecalis (GC 3059) (Enterococcus sp.; inoculum 5×10^5 CFU/mL, strain GC 3059): 32 mg/L (≈ 21.9 µM) | MIC Coagulase Negative Staphylococcus (GC 4547) (Staphylococcus sp.): 4 mg/L (≈ 2.74 µM) | MIC Coagulase Negative Staphylococcus (GC 4548) (Staphylococcus sp.): 4 mg/L (≈ 2.74 µM) | MIC Coagulase Negative Staphylococcus (GC 4549) (Staphylococcus sp.): 4 mg/L (≈ 2.74 µM) | MIC Coagulase Negative Staphylococcus (GC 4551) (Staphylococcus sp.): 8 mg/L (≈ 5.48 µM) | MIC Coagulase Negative Staphylococcus (GC 6257) (Staphylococcus sp.): 2 mg/L (≈ 1.37 µM) | MIC Staphylococcus aureus (ATCC 29213) (Staphylococcus sp.): 4 mg/L (≈ 2.74 µM) | MIC Staphylococcus aureus (GC 1131) (Staphylococcus sp.): 8 mg/L (≈ 5.48 µM) | MIC Staphylococcus aureus (GC 3051) (Staphylococcus sp.): 4 mg/L (≈ 2.74 µM) | MIC Staphylococcus aureus (GC 3053) (Staphylococcus sp.): 4 mg/L (≈ 2.74 µM) | MIC Staphylococcus aureus (GC 4541) (Staphylococcus sp.): 4 mg/L (≈ 2.74 µM) | MIC Staphylococcus aureus (GC 4542) (Staphylococcus sp.): 4 mg/L (≈ 2.74 µM) | MIC Staphylococcus aureus (GC 4544) (Staphylococcus sp.): 8 mg/L (≈ 5.48 µM) | MIC Staphylococcus aureus (GC 4545) (Staphylococcus sp.): 4 mg/L (≈ 2.74 µM) | MIC Staphylococcus aureus-SMITH (GC 4543) (Staphylococcus sp.): 4 mg/L (≈ 2.74 µM) | MIC Staphylococcus haemolyticus (GC 4546) (Staphylococcus sp.): 4 mg/L (≈ 2.74 µM) | MIC Staphylococcus aureus (ATCC 29213) (Staphylococcus sp.; strain ATCC 29213): 4 mg/L (≈ 2.74 µM) | MIC Staphylococcus aureus (GC 1131) (Staphylococcus sp.; strain GC 1131): 8 mg/L (≈ 5.48 µM) | MIC Staphylococcus aureus (GC 3051) (Staphylococcus sp.; strain GC 3051): 4 mg/L (≈ 2.74 µM) | MIC Staphylococcus aureus (GC 3053) (Staphylococcus sp.; strain GC 3053): 4 mg/L (≈ 2.74 µM) | MIC Staphylococcus aureus (GC 4541) (Staphylococcus sp.; strain GC 4541): 4 mg/L (≈ 2.74 µM) | MIC Staphylococcus aureus (GC 4542) (Staphylococcus sp.; strain GC 4542): 4 mg/L (≈ 2.74 µM) | MIC Staphylococcus aureus-SMITH (GC 4543) (Staphylococcus sp.; strain GC 4543): 4 mg/L (≈ 2.74 µM) | MIC Staphylococcus aureus (GC 4544) (Staphylococcus sp.; strain GC 4544): 8 mg/L (≈ 5.48 µM) | MIC Staphylococcus aureus (GC 4545) (Staphylococcus sp.; strain GC 4545): 4 mg/L (≈ 2.74 µM) | MIC Staphylococcus haemolyticus (GC 4546) (Staphylococcus sp.; strain GC 4546): 4 mg/L (≈ 2.74 µM) | MIC Coagulase Negative Staphylococcus (GC 4547) (Staphylococcus sp.; strain GC 4547): 4 mg/L (≈ 2.74 µM) | MIC Coagulase Negative Staphylococcus (GC 4548) (Staphylococcus sp.; strain GC 4548): 4 mg/L (≈ 2.74 µM) | MIC Coagulase Negative Staphylococcus (GC 4549) (Staphylococcus sp.; strain GC 4549): 4 mg/L (≈ 2.74 µM) | MIC Coagulase Negative Staphylococcus (GC 4551) (Staphylococcus sp.; strain GC 4551): 8 mg/L (≈ 5.48 µM) | MIC Coagulase Negative Staphylococcus (GC 6257) (Staphylococcus sp.; strain GC 6257): 2 mg/L (≈ 1.37 µM) | MIC Streptococcus agalactiae (GC 4564) (Streptococcus sp.): 2 mg/L (≈ 1.37 µM) | MIC Streptococcus pneumoniae (ATCC 6301) (Streptococcus sp.): 2 mg/L (≈ 1.37 µM) | MIC Streptococcus pneumoniae (GC 1894) (Streptococcus sp.): 0.5 mg/L (≈ 0.343 µM) | MIC Streptococcus pneumoniae (GC 4565) (Streptococcus sp.): 2 mg/L (≈ 1.37 µM) | MIC Streptococcus pyogenes (GC 4563) (Streptococcus sp.): 4 mg/L (≈ 2.74 µM) | MIC Streptococcus pneumoniae (ATCC 6301) (Streptococcus sp.; inoculum 5×10^5 CFU/mL, strain ATCC 6301): 2 mg/L (≈ 1.37 µM) | MIC Streptococcus pneumoniae (GC 1894) (Streptococcus sp.; inoculum 5×10^5 CFU/mL, strain GC 1894): 0.5 mg/L (≈ 0.343 µM) | MIC Streptococcus pyogenes (GC 4563) (Streptococcus sp.; inoculum 5×10^5 CFU/mL, strain GC 4563): 4 mg/L (≈ 2.74 µM) | MIC Streptococcus agalactiae (GC 4564) (Streptococcus sp.; inoculum 5×10^5 CFU/mL, strain GC 4564): 2 mg/L (≈ 1.37 µM) | MIC Streptococcus pneumoniae (GC 4565) (Streptococcus sp.; inoculum 5×10^5 CFU/mL, strain GC 4565): 2 mg/L (≈ 1.37 µM)

— patent publication US6914045B2, “Glycopeptide antibiotics” (Wyeth Holdings Corporation, priority 2001, dated 2005)
